Values of other authors in patent US20260053818A1, “PHARMACEUTICAL FORMULATION FOR THE TREATMENT OF INFLAMMATORY CHANGES TO THE RECTUM” (Dr. Falk Pharma GmbH, priority 2015, published 2026).
≈ marks a conversion by molar mass, not a printed value.

Conditions: Merck Index

solubility in water: 14 µg/mL (≈ 32.5 µM)
Compound: CCCC1O[C@@H]2C[C@H]3[C@@H]4CCC5=CC(=O)C=C[C@]5(C)[C@H]4[C@@H](O)C[C@]3(C)[C@]2(C(=O)CO)O1 (stereo partly shown) [budesonide]
